Laboratory results reported in US7666890B2, “Synthesis and herbicidal activity of 1- (2-substituted benzo[d]thiazol-5-yl)-1H-1,2,4-triazol-5(4H)-one derivatives” (Huazhong Normal University, priority 2007, dated 2010).

What was measured:
Assay in all cases: Test of herbicidal activities (greenhouse pot method)
Assay type in all cases: in vivo
Conditions in all cases: single dose 300 g ai./h, treated before/after germination, 15 days later, greenhouse pot
Amaranthus retroflexus = tested on: Amaranthus retroflexus
Method: (§1) Garden soil was collected from regions where no pesticide is used and mixed uniformly with mountain soil and organic humus soil at a volume ratio of 1:1:1.
(§2) Multiple flowerpots each having a diameter of 9.5 cm and a depth of 8 cm were filled with the soil mixture to 3/4 volume. After water was added to the soil and the soil was completely wet, seeds of three grass weeds and three broadleaf weeds were inserted into the flowerpots (10-15 seeds for each weed). After seeding, the seeds were covered with fine oil mixed with sand and having a thickness of 1-3 cm. After the soil absorbed enough water and became saturated, excess water at the bottom of the flowerpot was drained, and the seeds were placed in a greenhouse for growth.
(§3) The weeds were watered every day so as to keep relative humidity of the soil at approximately 80%, growing temperature of 15-30° C., and air humidity above 50%. As the grass weeds grew to a 2-leaf stage and the broadleaf weeds was in a leaf period, spraying operation […] was performed on the stems and leafs. Planting before germination was performed before spraying. Soil processing was performed before the seeds of the weeds emerged.
(§4) Six target weeds comprising three grass weeds: Echinochloa crusgalli, Digiatria sanguinalis, Setaria viridis, along with three broadleaf weeds: Brassica juncea, Amaranthus retroflexus, Chenopodium album were treated before/after germination using a so-called “greenhouse pot” method with a single dose. A treating dose was 300 g ai./h. The process was repeated three times, and a blank control was used.
(§5) A 3WPSHZ-500 type automatic spraying tower with a spraying area of 0.132 m^2, a spray volume of 10 mL, working pressure of 0.2 MPa, and a liquid volume of 40% of maximum was used. After treatment, the weeds were placed in a greenhouse at a temperature of 15-30° C. Reaction symptoms of the weeds were regularly observed, and 15 days later, five reaction levels were determined according to the following inhibition intervals: 90≦A≦100%; 80≦B<90%, 60≦C<80%; 50≦D<60%, E<50%.

Brassica juncea = tested on: Brassica juncea
Method: as §1, §2, §3, §4, §5

Chenopodium album = tested on: Chenopodium album
Method: as §1, §2, §3, §4, §5

Digiatria sanguinalis = tested on: Digiatria sanguinalis
Method: as §1, §2, §3, §4, §5

Echinochloa crusgalli = tested on: Echinochloa crusgalli
Method: as §1, §2, §3, §4, §5

Setaria viridis = tested on: Setaria viridis
Method: as §1, §2, §3, §4, §5

Row | Compound | inhibition at 300 g/ha (Amaranthus retroflexus; Amaranthus retroflexus, 360 h, read-out: Herbicidal activity Amaranthus retroflexus (inhibition level)) [%] | inhibition at 300 g/ha (Brassica juncea; Brassica juncea, 360 h, read-out: Herbicidal activity Brassica juncea (inhibition level)) [%] | inhibition at 300 g/ha (Chenopodium album; Chenopodium album, 360 h, read-out: Herbicidal activity Chenopodium album (inhibition level)) [%] | inhibition at 300 g/ha (Digiatria sanguinalis; 360 h, read-out: Herbicidal activity Digiatria sanguinalis (inhibition level)) [%] | inhibition at 300 g/ha (Echinochloa crusgalli; Echinochloa crus-galli, 360 h, read-out: Herbicidal activity Echinochloa crusgalli (inhibition level)) [%] | inhibition at 300 g/ha (Setaria viridis; Setaria viridis, 360 h, read-out: Herbicidal activity Setaria viridis (inhibition level)) [%] | Herbicidal activity Amaranthus retroflexus (inhibition level) (Amaranthus retroflexus) | Herbicidal activity Brassica juncea (inhibition level) (Brassica juncea) | Herbicidal activity Chenopodium album (inhibition level) (Chenopodium album) | Herbicidal activity Digiatria sanguinalis (inhibition level) (Digiatria sanguinalis) | Herbicidal activity Echinochloa crusgalli (inhibition level) (Echinochloa crusgalli) | Herbicidal activity Setaria viridis (inhibition level) (Setaria viridis)
1 | CCOC(=O)CSc1nc2cc(-n3nc(C)n(C(F)F)c3=O)c(Cl)cc2s1 [Compound 98] | 90 to 100 | 90 to 100 | 80 to 90 | 90 to 100 | 90 to 100 | 90 to 100 |  |  |  |  |  | 
2 | C#CCSc1nc2cc(-n3nc(C)n(C(F)F)c3=O)c(F)cc2s1 [Compound 130] |  |  |  |  |  |  | A (90 ≦ A ≦ 100%) | D (50 ≦ D < 60%) | B (80 ≦ B < 90%) | C (60 ≦ C < 80%) | B (80 ≦ B < 90%) | A (90 ≦ A ≦ 100%)
3 | CCCCS(=O)(=O)c1nc2cc(-n3nc(C)n(C(F)F)c3=O)c(Cl)cc2s1 [Compound 69] |  |  |  |  |  |  | A (90 ≦ A ≦ 100%) | B (80 ≦ B < 90%) | C (60 ≦ C < 80%) | B (80 ≦ B < 90%) | A (90 ≦ A ≦ 100%) | B (80 ≦ B < 90%)
4 | Cc1nn(-c2cc3nc(SCc4cccc(F)c4)sc3cc2Cl)c(=O)n1C(F)F [Compound 7] |  |  |  |  |  |  | B (80 ≦ B < 90%) | C (60 ≦ C < 80%) | E (E < 50%) | B (80 ≦ B < 90%) | E (E < 50%) | B (80 ≦ B < 90%)
5 | Cc1nn(-c2cc3nc(SCc4ccc(Cl)cc4)sc3cc2Br)c(=O)n1C(F)F [Compound 25] |  |  |  |  |  |  | E (E < 50%) | C (60 ≦ C < 80%) | E (E < 50%) | C (60 ≦ C < 80%) | D (50 ≦ D < 60%) | B (80 ≦ B < 90%)
6 | CCOC(=O)CSc1nc2cc(-n3nc(C)n(C(F)F)c3=O)c(Br)cc2s1 [Compound 82] |  |  |  |  |  |  | A (90 ≦ A ≦ 100%) | B (80 ≦ B < 90%) | C (60 ≦ C < 80%) | A (90 ≦ A ≦ 100%) | A (90 ≦ A ≦ 100%) | A (90 ≦ A ≦ 100%)
7 | Cc1ccc([N+](=O)[O-])c(CS(=O)(=O)c2nc3cc(-n4nc(C)n(C(F)F)c4=O)c(F)cc3s2)c1 [Compound 46] |  |  |  |  |  |  | A (90 ≦ A ≦ 100%) | E (E < 50%) | C (60 ≦ C < 80%) | B (80 ≦ B < 90%) | D (50 ≦ D < 60%) | B (80 ≦ B < 90%)
8 | CCCS(=O)(=O)c1nc2cc(-n3nc(C)n(C(F)F)c3=O)c(Cl)cc2s1 [Compound 72] |  |  |  |  |  |  | A (90 ≦ A ≦ 100%) | B (80 ≦ B < 90%) | B (80 ≦ B < 90%) | B (80 ≦ B < 90%) | A (90 ≦ A ≦ 100%) | C (60 ≦ C < 80%)
9 | Cc1nn(-c2cc3nc(SCc4csc(Cl)n4)sc3cc2F)c(=O)n1C(F)F [Compound 10] |  |  |  |  |  |  | B (80 ≦ B < 90%) | A (90 ≦ A ≦ 100%) | C (60 ≦ C < 80%) | C (60 ≦ C < 80%) | B (80 ≦ B < 90%) | C (60 ≦ C < 80%)
10 | Cc1nn(-c2cc3nc(S(=O)(=O)Cc4ccccc4)sc3cc2F)c(=O)n1C [Compound 34] |  |  |  |  |  |  | B (80 ≦ B < 90%) | D (50 ≦ D < 60%) | C (60 ≦ C < 80%) | A (90 ≦ A ≦ 100%) | B (80 ≦ B < 90%) | A (90 ≦ A ≦ 100%)
11 | C=CCSc1nc2cc(-n3nc(C)n(C(F)F)c3=O)c(F)cc2s1 [Compound 94] |  |  |  |  |  |  | B (80 ≦ B < 90%) | B (80 ≦ B < 90%) | B (80 ≦ B < 90%) | A (90 ≦ A ≦ 100%) | A (90 ≦ A ≦ 100%) | A (90 ≦ A ≦ 100%)
12 | Cc1ccc([N+](=O)[O-])c(CSc2nc3cc(-n4nc(C)n(C(F)F)c4=O)c(F)cc3s2)c1 [Compound 16] |  |  |  |  |  |  | C (60 ≦ C < 80%) | B (80 ≦ B < 90%) | C (60 ≦ C < 80%) | C (60 ≦ C < 80%) | C (60 ≦ C < 80%) | B (80 ≦ B < 90%)
13 | Cc1nn(-c2cc3nc(SCc4cccs4)sc3cc2F)c(=O)n1C(F)F [Compound 73] |  |  |  |  |  |  | A (90 ≦ A ≦ 100%) | B (80 ≦ B < 90%) | A (90 ≦ A ≦ 100%) | A (90 ≦ A ≦ 100%) | B (80 ≦ B < 90%) | B (80 ≦ B < 90%)
14 | CC[S+]([O-])c1nc2cc(-n3nc(C)n(C(F)F)c3=O)c(Cl)cc2s1 (stereo not drawn) [Compound 115] |  |  |  |  |  |  | B (80 ≦ B < 90%) | A (90 ≦ A ≦ 100%) | D (50 ≦ D < 60%) | B (80 ≦ B < 90%) | C (60 ≦ C < 80%) | B (80 ≦ B < 90%)
15 | CCS(=O)(=O)c1nc2cc(-n3nc(C)n(C(F)F)c3=O)c(F)cc2s1 [Compound 56] |  |  |  |  |  |  | A (90 ≦ A ≦ 100%) | A (90 ≦ A ≦ 100%) | C (60 ≦ C < 80%) | D (50 ≦ D < 60%) | B (80 ≦ B < 90%) | D (50 ≦ D < 60%)
16 | Cc1nn(-c2cc3nc(SCc4ccc(Br)cc4)sc3cc2Cl)c(=O)n1C(F)F [Compound 6] |  |  |  |  |  |  | B (80 ≦ B < 90%) | C (60 ≦ C < 80%) | B (80 ≦ B < 90%) | E (E < 50%) | B (80 ≦ B < 90%) | C (60 ≦ C < 80%)
17 | CSc1nc2cc(-n3nc(C)n(C(F)F)c3=O)c(F)cc2s1 [Compound 90] |  |  |  |  |  |  | A (90 ≦ A ≦ 100%) | A (90 ≦ A ≦ 100%) | A (90 ≦ A ≦ 100%) | A (90 ≦ A ≦ 100%) | B (80 ≦ B < 90%) | A (90 ≦ A ≦ 100%)
18 | CC[S+]([O-])c1nc2cc(-n3nc(C)n(C(F)F)c3=O)c(F)cc2s1 (stereo not drawn) [Compound 113] |  |  |  |  |  |  | B (80 ≦ B < 90%) | A (90 ≦ A ≦ 100%) | D (50 ≦ D < 60%) | C (60 ≦ C < 80%) | B (80 ≦ B < 90%) | C (60 ≦ C < 80%)
